Test results: PubChem BioAssay (NCI)
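96-well plates; 48 h exposure; 5 concentrations. Endpoints by linear interpolation between flanking doses. Not reached: highest tested concentration assigned. The concentration for 50% growth inhibition is given as GI50. The concentration for full growth arrest is given as TGI.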

How the values were obtained:
Assay in all cases: NCI anticancer screen, dose series, 48 h
NCI-H226 lung = system: NCI-H226 lung
NCI-H23 lung = system: NCI-H23 lung
NCI-H460 lung = system: NCI-H460 lung
NCI-H522 lung = system: NCI-H522 lung
NCI/ADR-RES ovarian = system: NCI/ADR-RES ovarian
OVCAR-3 ovarian = system: OVCAR-3 ovarian
OVCAR-4 ovarian = system: OVCAR-4 ovarian
OVCAR-5 ovarian = system: OVCAR-5 ovarian
OVCAR-8 ovarian = system: OVCAR-8 ovarian
PC-3 prostate = system: PC-3 prostate
RPMI-8226 leukemia = system: RPMI-8226 leukemia
RXF 393 renal = system: RXF 393 renal
SF-268 CNS = system: SF-268 CNS
SF-295 CNS = system: SF-295 CNS
SF-539 CNS = system: SF-539 CNS
SK-MEL-2 melanoma = system: SK-MEL-2 melanoma
SK-MEL-28 melanoma = system: SK-MEL-28 melanoma
SK-MEL-5 melanoma = system: SK-MEL-5 melanoma
SK-OV-3 ovarian = system: SK-OV-3 ovarian
SN12C renal = system: SN12C renal
SNB-19 CNS = system: SNB-19 CNS
SNB-75 CNS = system: SNB-75 CNS
SR leukemia = system: SR leukemia
SW-620 colon = system: SW-620 colon
T-47D breast = system: T-47D breast
TK-10 renal = system: TK-10 renal
U251 CNS = system: U251 CNS
UACC-257 melanoma = system: UACC-257 melanoma
UACC-62 melanoma = system: UACC-62 melanoma
UO-31 renal = system: UO-31 renal

## C=C1CCC2C3(C)COC(c4cc(F)cc(F)c4)OC3CCC2(C)C1C/C=C1/C(=O)OCC1O (centres undefined)
NCI-H226 lung
  TGI: 3420 nM
NCI-H23 lung
  GI50: 1880 nM
  TGI: 3750 nM
NCI-H460 lung
  GI50: 1620 nM
  TGI: 3200 nM
NCI-H522 lung
  GI50: 1640 nM
  TGI: 3230 nM
NCI/ADR-RES ovarian
  GI50: 1820 nM
  TGI: 3670 nM
OVCAR-3 ovarian
  GI50: 1620 nM
  TGI: 3120 nM
OVCAR-4 ovarian
  GI50: 1850 nM
  TGI: 4090 nM
OVCAR-5 ovarian
  GI50: 1590 nM
  TGI: 3210 nM
OVCAR-8 ovarian
  GI50: 1770 nM
  TGI: 4520 nM
PC-3 prostate
  GI50: 1750 nM
  TGI: 3600 nM
RPMI-8226 leukemia
  GI50: 2050 nM
  TGI: 5450 nM
RXF 393 renal
  GI50: 1730 nM
  TGI: 3230 nM
SF-268 CNS
  GI50: 1840 nM
  TGI: 3690 nM
SF-295 CNS
  GI50: 1560 nM
  TGI: 2980 nM
SF-539 CNS
  GI50: 1660 nM
  TGI: 3020 nM
SK-MEL-2 melanoma
  GI50: 1790 nM
  TGI: 3380 nM
SK-MEL-28 melanoma
  GI50: 1770 nM
  TGI: 3210 nM
SK-MEL-5 melanoma
  GI50: 1750 nM
  TGI: 3210 nM
SK-OV-3 ovarian
  GI50: 9790 nM
  TGI: 22000 nM
SN12C renal
  GI50: 1520 nM
  TGI: 2890 nM
SNB-19 CNS
  GI50: 1730 nM
  TGI: 3430 nM
SNB-75 CNS
  GI50: 1140 nM
  TGI: 2400 nM
SR leukemia
  GI50: 2080 nM
  TGI: 5230 nM
SW-620 colon
  GI50: 1350 nM
  TGI: 2810 nM
T-47D breast
  GI50: 1430 nM
  TGI: 3100 nM
TK-10 renal
  GI50: 1680 nM
  TGI: 3250 nM
U251 CNS
  GI50: 1580 nM
  TGI: 3030 nM
UACC-257 melanoma
  GI50: 1730 nM
  TGI: 3440 nM
UACC-62 melanoma
  GI50: 1650 nM
  TGI: 3290 nM
UO-31 renal
  GI50: 1410 nM
  TGI: 2700 nM
